# Patent US20170283378A1, “INDOLE DERIVATIVES FOR THE PREVENTION AND/OR TREATMENT OF DIABETES AND ASSOCIATED METABOLIC DISORDERS” (Consejo Superior de Investigaciones Cientificas (CSIC), priority 2014, published 2017)
# Tested on: AMPK
# Experiment: AMPK activation measurements in cultured cells (Western Blot of pThr172 AMPK alpha and pSer79 ACC)
# Type: cell-based, human
# Details: for activation of AMPK (anti-phosphoThr172 AMPK alpha, Western Blot) / phosphorylation of ACC substrate (anti-phosphoSer79ACC, Western Blot): HEK293 cells treated for 1 hour; for endogenous levels of AMPKα pT172: HEK293 cells, increasing doses, phenformin 5 mM as activation control; for activation of the AMPK complex: at the indicated doses (figures), cultured HEK293 cells
# Experimental: AMPK activation measurements in cultured cells by means of compounds 7 and 16.
# Cell line and treatments. The cell line that was used in the treatments with the different assayed reagents was HEK293T (human embryonic kidney cells). Cells were grown in DMEM (Dulbecco's Modified Eagle's Medium) with 25 mM of glucose supplemented with 10% of inactivated fetal bovine serum, 2 mM glutamine, 100 units/ml of penicillin and 100 μg/ml of streptomycin, in a humid atmosphere at 37° C. with 5% of CO2. Cells were grown on 60 mm (p. 60) plates to obtain 70-80% of confluence. Cells were washed in Krebs Ringer buffer (KRB: NaCI […], CaCl2 […], KH2PO4 0.5 mM, KCl 3 mM, NaHCO3 2.5 mM, MgSO40.5 mM, HEPES 10 mM pH 7.4, 95:5 O2/CO2) tempered at 37° C. and subsequently treated for 1 hour at 37° C. in a culture oven, adding the adequate quantities of 7 and 16 (5 mM stock in DMSO) dissolved in KRB/25 mM glucose to reach the final concentrations indicated in the figures. Phenformin 5 mM was used as an activation control.
# Preparation of HEK293T cell extracts. After the corresponding treatments, the supernatant was removed and cells were quickly-frozen in liquid N2. The plates were processed one by one and kept in ice , firstly adding the cold lysis buffer. The composition of the buffer was as follows: Tris 10 mM pH 7.4, EDTA 15 mM pH 8.0, NaF 50 mM, Na4P2O7 15 mM, sacarose 0.6 M, 2-Mercaptoethanol 15 mM, a mixture of protease inhibitors without EDTA (Roche) and 1 mM PMSF. Cells were collected in a lysis buffer with the help of a scraper and were lysed, passing each sample through 24 G×⅝″ syringes four times. A small amount was reserved to measure the quantity of protein using the Bradford protein assay and loading buffer for electrophoresis was added to the rest and boiled for 5 min maintaining the samples at −20° C. until their use. The concentration of proteins was determined through the Bradford method using the Bio-Rad Bradford Protein Assay Reagent (BioRad).
# Protein analysis by Western Blot. The protein extracts were analysed using SDS-PAGE in gels with 8% or 10% acrylamide and 1.5 mm thick. 30 µg of protein were loaded and transferred to a PVDF (Millipore) membrane for 1.5 hours at 100 V. Blockage was performed using 5% of skimmed milk in TBS-T for 1 hour at room temperature. Immunodetection was performed by incubating the primary antibody all night at 4° C. After three 10-minute washes at room temperature using TBS-T, they were incubated with their corresponding secondary antibody conjugated to HRP. After the three 10-minute washes at room temperature using TBS-T, the membranes were developed using ECL plus (Pierce) and processed using a FUJI LAS 3000 (Fujifilm) unit. The antibodies used were: anti-pAMPKαThr172, anti-AMPKβ1/β2, anti-ACC and anti-pACCser79 from the company Cell Signaling Technology (Danvers, Mass., USA) diluted 1:1000, and the HRP goat anti-rabbit secondary antibody from the company Santa Cruz Technology at a dilution of 1:5000 or 1:10000. The detection of bands with the anti-pAMPKαThr172 and anti-pACCser79 antibodies (AMPK substrate) with respect to their respective loading controls (anti-AMPKβ1/β2 and anti-ACC) was taken as an indicative of AMPK activation.
# [1] = concentrations between 12.5 and 50 μM, FIG. 1
# [2] = concentrations between 12.5 and 100 μM, FIG. 2
compound,measurement,setting,value
"O=C(O)c1c(-c2ccc(-c3ccccc3O)cc2)c2ccccc2n1Cc1ccccc1 [compound 7, 1-benzyl-3-(2′-hydroxy-[1,1′-biphenyl]-4-yl)-1H-indole-2-carboxylic acid]","activation of AMPK (anti-phosphoThr172 AMPK alpha, Western Blot)",[1],activates AMPK in a dose-dependent manner
same,"phosphorylation of ACC substrate (anti-phosphoSer79ACC, Western Blot)",[1],increase in phosphorylation
same,endogenous levels of AMPKα pT172,,increase in endogenous levels of AMPKα pT172
same,activation of the AMPK complex,,capable of inducing the activation of the AMPK complex
"O=C(O)c1[nH]c2ccccc2c1-c1ccc(-c2ccccc2O)cc1 [compound 16, 3-(2′-hydroxy-[1,1′-biphenyl]-4-yl)-1H-indole-2-carboxylic acid]","activation of AMPK (anti-phosphoThr172 AMPK alpha, Western Blot)",[2],activates AMPK in a dose-dependent manner
same,"phosphorylation of ACC substrate (anti-phosphoSer79ACC, Western Blot)",[2],increase in phosphorylation
same,endogenous levels of AMPKα pT172,,increase in endogenous levels of AMPKα pT172
same,activation of the AMPK complex,,capable of inducing the activation of the AMPK complex
